Patent US20120283208A1, “ANTIBACTERIAL AMINOGLYCOSIDE ANALOGS” (Achaogen, Inc., priority 2009, published 2012)
In brackets after ≈: the same amount, converted by molar mass.

What was measured:
P. aeruginosa ATCC 27853 = assay: MIC broth microdilution, APAE001; type: cell-based; details: Pseudomonas aeruginosa; APAE001 is ATCC27853; Mueller Hinton Broth, 35 C, 20 hours
Experimental: (§1) Minimum inhibitory concentrations (MIC) were determined by reference Clinical and Laboratory Standards Institute (CLSI) broth microdilution methods per M7-A7 [2006]. Quality control ranges utilizing E. coli ATCC 25922, P. aeruginosa ATCC 27853 and S. aureus ATCC 29213, and interpretive criteria for comparator agents were as published in CLSI M100-S17 [2007]. Briefly, serial two-fold dilutions of the test compounds were prepared at 2× concentration in Mueller Hinton Broth. The compound dilutions were mixed in 96-well assay plates in a 1:1 ratio with bacterial inoculum. The inoculum was prepared by suspension of a colony from an agar plate that was prepared the previous day. Bacteria were suspended in sterile saline and added to each assay plate to obtain a final concentration of 5×10^5 CFU/mL. The plates were incubated at 35 C for 20 hours in ambient air.

E. coli ATCC 25922 = assay: MIC broth microdilution, AECO001; type: cell-based; details: Escherichia coli; AECO001 is ATCC25922; Mueller Hinton Broth, 35 C, 20 hours
Experimental: as §1

SMILES | MIC (P. aeruginosa ATCC 27853) | MIC (E. coli ATCC 25922)
NC[C@@H]1O[C@H](O[C@H]2[C@@H](O)[C@H](O[C@@H]3[C@@H](O)[C@H](NC(=O)[C@]4(O)C[C@H](N)C4)C[C@H](N)[C@H]3O[C@H]3O[C@H](CNCCO)[C@@H](O)C[C@H]3N)O[C@@H]2CO)[C@H](N)[C@@H](O)[C@@H]1O [2/9] | ≤ 1 µg/mL | 1 to 16 µg/mL (≈ 1.32 to 21.2 µM)
NC[C@@H]1O[C@H](O[C@H]2[C@@H](O)[C@H](O[C@@H]3[C@@H](O)[C@H](NC(=O)[C@@H](O)C(F)(F)CN)C[C@H](N)[C@H]3O[C@H]3O[C@H](CNCCO)[C@@H](O)C[C@H]3N)O[C@@H]2CO)[C@H](N)[C@@H](O)[C@@H]1O [6/3] | 1 to 16 µg/mL (≈ 1.28 to 20.5 µM) | 1 to 16 µg/mL (≈ 1.28 to 20.5 µM)

Second part, the compound after the results:

MIC (P. aeruginosa ATCC 27853) | MIC (E. coli ATCC 25922) | SMILES
≤ 1 µg/mL | 1 to 16 µg/mL (≈ 1.35 to 21.6 µM) | NC[C@@H]1O[C@H](O[C@H]2[C@@H](O)[C@H](O[C@@H]3[C@@H](O)[C@H](NC(=O)C4(O)CNC4)C[C@H](N)[C@H]3O[C@H]3O[C@H](CNCCO)[C@@H](O)C[C@H]3N)O[C@@H]2CO)[C@H](N)[C@@H](O)[C@@H]1O [1/16]
≤ 1 µg/mL | 1 to 16 µg/mL (≈ 1.32 to 21.1 µM) | NC[C@@H](O)[C@H](O)C(=O)N[C@@H]1C[C@H](N)[C@@H](O[C@H]2O[C@H](CNCCO)[C@@H](O)C[C@H]2N)[C@H](O[C@@H]2O[C@H](CO)[C@@H](O[C@H]3O[C@@H](CN)[C@@H](O)[C@H](O)[C@H]3N)[C@H]2O)[C@H]1O [3/3]
≤ 1 µg/mL | 1 to 16 µg/mL (≈ 1.32 to 21.1 µM) | NC[C@@H]1O[C@H](O[C@H]2[C@@H](O)[C@H](O[C@@H]3[C@@H](O)[C@H](NC(=O)[C@@H](O)[C@@H](O)CN)C[C@H](N)[C@H]3O[C@H]3O[C@H](CNCCO)[C@@H](O)C[C@H]3N)O[C@@H]2CO)[C@H](N)[C@@H](O)[C@@H]1O [4/3]
≤ 1 µg/mL | 1 to 16 µg/mL (≈ 1.31 to 21 µM) | NC[C@@H](F)[C@H](O)C(=O)N[C@@H]1C[C@H](N)[C@@H](O[C@H]2O[C@H](CNCCO)[C@@H](O)C[C@H]2N)[C@H](O[C@@H]2O[C@H](CO)[C@@H](O[C@H]3O[C@@H](CN)[C@@H](O)[C@H](O)[C@H]3N)[C@H]2O)[C@H]1O [5/3]
